Measured values taken from ChEMBL document CHEMBL5380790 (J Med Chem, 2023).
Converted amounts (≈) assume the structure as drawn. The source made the active and inactive calls. The rule behind the calls is not given here.

Columns and labels:
[1] = Dissociation constant, pKa of the compound; type: physicochemical
[2] = Metabolic stability in human hepatocytes assessed as intrinsic clearance measured per million cells; type: ADME, cell-based, Hepatocyte; details: read-out: CLH
[3] = Solubility of compound in FaSSIF at pH 6.5; type: physicochemical
[4] = Efflux ratio of apparent permeability from basolateral to apical side over apical to basolateral side in human Caco-2 cells at 1 uM and measured after 2 hrs by LC-MS/MS analysis; type: ADME, cell-based
[5] = biological target: hERG (KCNH2) potassium channel (Homo sapiens, UniProt Q12809); test: Inhibition of human ERG potassium channel transfected in HEK293 cells at holding potential -80 mV at 10 uM and measured for 5 mins by whole cell patch clamp assay; type: toxicity, cell-based; details: HEK293 cells transfected with hERG
[6] = Octanol-water distribution coefficient, logD of the compound at pH 7.4; type: physicochemical
[7] = biological target: Mast/stem cell growth factor receptor Kit (Homo sapiens, UniProt P10721, DELTA560/V654A); type: cell-based, GIST-430/654
[8] = Apparent passive permeability of compound in human Caco-2 cells at 1 uM and measured after 2 hrs by LC-MS/MS analysis; type: ADME, cell-based
[9] = Kinetic solubility of compound in PBS buffer at pH 7.4 and measured after 2 hrs by HPLC-UV analysis; type: physicochemical; details: read-out: Kinetic_solubility
[10] = Metabolic stability in mouse liver microsomes assessed as intrinsic clearance in presence of NADPH by UPLC analysis; type: ADME, Microsome; details: read-out: CLH
[11] = Metabolic stability in human liver microsomes assessed as intrinsic clearance in presence of NADPH by UPLC analysis; type: ADME, Microsome; details: read-out: CLH
[12] = biological target: Mast/stem cell growth factor receptor Kit (Homo sapiens, UniProt P10721, V654A); test: Inhibition of recombinant human KIT V654A mutant using polyGT and ATP as substrate preincubated for 20 mins followed by substrate addition and measured after 240 mins by FRET assay
[13] = biological target: Receptor-type tyrosine-protein kinase FLT3 (Homo sapiens) (UniProt P36888); test: Inhibition of FLT3 (unknown origin) at 1 uM using 33P-ATP as substrate incubated for 120 mins by radiometric kinase assay
[14] = Solubility of compound in simulated gastric fluid at pH 1.2; type: physicochemical
[15] = Solubility of compound in FeSSIF at pH 5.5; type: physicochemical

Mast/stem cell growth factor receptor Kit (Homo sapiens, UniProt P10721, V654A), sequence (P10721 26-976 V654A limits assumed): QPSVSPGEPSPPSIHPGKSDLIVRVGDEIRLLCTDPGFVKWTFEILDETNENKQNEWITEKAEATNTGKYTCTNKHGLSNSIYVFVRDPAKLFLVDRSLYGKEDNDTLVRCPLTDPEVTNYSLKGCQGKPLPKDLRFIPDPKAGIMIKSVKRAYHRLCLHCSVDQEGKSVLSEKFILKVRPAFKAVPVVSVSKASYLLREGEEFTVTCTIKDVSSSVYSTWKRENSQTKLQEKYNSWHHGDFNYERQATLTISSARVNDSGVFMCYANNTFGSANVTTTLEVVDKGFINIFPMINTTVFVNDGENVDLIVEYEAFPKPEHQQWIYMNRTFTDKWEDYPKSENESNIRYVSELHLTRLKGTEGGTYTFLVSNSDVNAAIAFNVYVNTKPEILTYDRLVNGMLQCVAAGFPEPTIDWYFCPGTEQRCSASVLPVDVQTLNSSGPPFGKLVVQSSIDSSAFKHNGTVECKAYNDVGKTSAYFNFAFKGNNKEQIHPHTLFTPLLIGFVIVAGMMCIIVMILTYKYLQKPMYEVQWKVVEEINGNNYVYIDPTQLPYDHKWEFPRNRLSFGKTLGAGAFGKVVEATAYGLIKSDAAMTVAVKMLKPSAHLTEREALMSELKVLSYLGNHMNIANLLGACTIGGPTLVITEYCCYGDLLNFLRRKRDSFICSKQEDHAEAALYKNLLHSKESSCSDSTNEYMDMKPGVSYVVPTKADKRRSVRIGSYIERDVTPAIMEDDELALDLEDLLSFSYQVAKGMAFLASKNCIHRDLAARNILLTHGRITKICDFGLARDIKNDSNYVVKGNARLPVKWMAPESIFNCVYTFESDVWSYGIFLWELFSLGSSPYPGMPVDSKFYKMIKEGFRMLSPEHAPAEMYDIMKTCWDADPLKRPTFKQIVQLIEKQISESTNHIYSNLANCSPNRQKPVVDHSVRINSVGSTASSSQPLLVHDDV
hERG (KCNH2) potassium channel, sequence (Q12809 whole entry): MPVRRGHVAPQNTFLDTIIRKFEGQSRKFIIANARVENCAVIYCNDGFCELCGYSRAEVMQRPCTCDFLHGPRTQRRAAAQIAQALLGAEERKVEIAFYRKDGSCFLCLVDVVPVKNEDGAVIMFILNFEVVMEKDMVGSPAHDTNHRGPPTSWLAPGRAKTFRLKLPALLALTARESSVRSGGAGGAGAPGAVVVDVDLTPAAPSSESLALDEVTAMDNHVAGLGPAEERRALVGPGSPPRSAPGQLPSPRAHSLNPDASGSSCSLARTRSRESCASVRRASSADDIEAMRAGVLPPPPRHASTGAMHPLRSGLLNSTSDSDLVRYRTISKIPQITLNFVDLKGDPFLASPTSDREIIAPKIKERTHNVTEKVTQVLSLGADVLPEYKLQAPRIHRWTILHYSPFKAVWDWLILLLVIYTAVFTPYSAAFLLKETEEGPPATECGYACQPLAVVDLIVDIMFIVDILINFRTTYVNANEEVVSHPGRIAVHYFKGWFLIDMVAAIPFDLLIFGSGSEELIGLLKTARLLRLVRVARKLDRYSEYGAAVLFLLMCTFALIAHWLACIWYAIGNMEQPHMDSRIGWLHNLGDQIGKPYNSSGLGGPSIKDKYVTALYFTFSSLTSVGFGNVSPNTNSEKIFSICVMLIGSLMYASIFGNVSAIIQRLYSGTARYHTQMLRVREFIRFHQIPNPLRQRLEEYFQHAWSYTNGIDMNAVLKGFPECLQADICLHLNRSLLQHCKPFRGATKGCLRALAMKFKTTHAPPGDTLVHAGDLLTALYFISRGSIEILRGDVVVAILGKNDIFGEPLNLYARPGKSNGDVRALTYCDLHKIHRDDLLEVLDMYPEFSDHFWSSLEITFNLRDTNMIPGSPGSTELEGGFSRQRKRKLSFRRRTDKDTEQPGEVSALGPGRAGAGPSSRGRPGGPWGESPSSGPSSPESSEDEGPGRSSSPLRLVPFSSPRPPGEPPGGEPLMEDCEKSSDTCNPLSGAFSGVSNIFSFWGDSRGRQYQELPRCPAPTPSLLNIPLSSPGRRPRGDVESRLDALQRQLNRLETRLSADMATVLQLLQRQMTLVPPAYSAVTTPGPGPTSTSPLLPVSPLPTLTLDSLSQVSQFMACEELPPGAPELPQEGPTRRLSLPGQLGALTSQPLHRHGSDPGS
Mast/stem cell growth factor receptor Kit (Homo sapiens, UniProt P10721, DELTA560/V654A), sequence (P10721 whole entry, looked up, stated change not applied): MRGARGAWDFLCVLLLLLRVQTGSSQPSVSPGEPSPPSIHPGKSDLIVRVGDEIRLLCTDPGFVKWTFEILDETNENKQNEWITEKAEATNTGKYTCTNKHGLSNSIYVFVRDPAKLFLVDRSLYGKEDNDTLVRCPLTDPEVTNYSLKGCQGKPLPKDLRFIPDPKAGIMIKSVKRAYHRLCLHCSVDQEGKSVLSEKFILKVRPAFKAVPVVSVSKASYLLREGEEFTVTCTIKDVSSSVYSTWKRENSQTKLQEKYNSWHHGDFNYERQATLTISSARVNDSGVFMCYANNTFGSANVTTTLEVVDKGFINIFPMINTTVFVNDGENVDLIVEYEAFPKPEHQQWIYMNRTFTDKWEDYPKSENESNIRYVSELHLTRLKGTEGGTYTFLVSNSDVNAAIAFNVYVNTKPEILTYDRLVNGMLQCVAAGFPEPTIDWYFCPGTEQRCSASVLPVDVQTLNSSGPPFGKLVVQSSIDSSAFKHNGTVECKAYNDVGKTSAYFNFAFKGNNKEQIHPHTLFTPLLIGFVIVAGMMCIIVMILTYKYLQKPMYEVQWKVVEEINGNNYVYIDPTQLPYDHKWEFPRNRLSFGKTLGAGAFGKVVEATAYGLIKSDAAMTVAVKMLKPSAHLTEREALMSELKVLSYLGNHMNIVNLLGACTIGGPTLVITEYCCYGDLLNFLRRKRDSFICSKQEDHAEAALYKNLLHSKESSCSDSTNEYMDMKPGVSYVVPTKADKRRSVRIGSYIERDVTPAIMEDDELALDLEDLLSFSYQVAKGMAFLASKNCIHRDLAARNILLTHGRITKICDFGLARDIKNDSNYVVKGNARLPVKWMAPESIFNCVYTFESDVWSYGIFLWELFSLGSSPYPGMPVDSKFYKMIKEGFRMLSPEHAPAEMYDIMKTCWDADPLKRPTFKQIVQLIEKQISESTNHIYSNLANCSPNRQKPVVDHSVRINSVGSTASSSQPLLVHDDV
Receptor-type tyrosine-protein kinase FLT3 (Homo sapiens), sequence (P36888 whole entry): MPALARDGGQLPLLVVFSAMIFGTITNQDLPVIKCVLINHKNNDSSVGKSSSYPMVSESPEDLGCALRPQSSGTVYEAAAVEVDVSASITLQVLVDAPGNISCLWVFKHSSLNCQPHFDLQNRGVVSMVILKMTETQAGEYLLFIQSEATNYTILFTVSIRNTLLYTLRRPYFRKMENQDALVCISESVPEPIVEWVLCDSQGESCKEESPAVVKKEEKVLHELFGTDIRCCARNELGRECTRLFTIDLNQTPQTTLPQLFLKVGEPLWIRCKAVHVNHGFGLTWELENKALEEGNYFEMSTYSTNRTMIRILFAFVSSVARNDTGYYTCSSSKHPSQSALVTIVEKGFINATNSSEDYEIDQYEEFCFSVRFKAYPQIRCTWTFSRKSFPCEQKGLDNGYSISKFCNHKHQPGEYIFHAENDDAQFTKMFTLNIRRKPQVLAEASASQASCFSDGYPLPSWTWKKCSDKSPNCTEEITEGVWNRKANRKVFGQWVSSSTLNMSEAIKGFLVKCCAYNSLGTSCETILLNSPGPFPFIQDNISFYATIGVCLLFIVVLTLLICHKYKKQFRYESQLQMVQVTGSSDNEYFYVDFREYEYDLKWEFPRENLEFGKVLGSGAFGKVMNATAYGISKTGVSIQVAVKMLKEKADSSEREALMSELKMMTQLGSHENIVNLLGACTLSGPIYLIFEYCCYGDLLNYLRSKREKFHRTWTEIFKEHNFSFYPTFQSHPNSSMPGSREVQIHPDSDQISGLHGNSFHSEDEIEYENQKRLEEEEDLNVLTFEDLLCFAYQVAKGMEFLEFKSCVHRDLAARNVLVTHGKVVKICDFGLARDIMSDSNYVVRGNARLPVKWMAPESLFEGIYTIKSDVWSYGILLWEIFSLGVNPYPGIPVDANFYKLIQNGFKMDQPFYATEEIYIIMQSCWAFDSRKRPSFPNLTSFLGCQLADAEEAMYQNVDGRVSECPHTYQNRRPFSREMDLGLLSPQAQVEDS

pKa [1] | hepatocyte CLint [2] | solubility [3] | efflux ratio at 2 h, 1 µM [4] | logD [6] | IC50 [7] | Papp at 2 h, 1 µM [8] | solubility kinetic at 2 h [9] | microsomal CLint [10] | microsomal CLint [11] | IC50 [12] | inhibition [13] | solubility [14] | solubility [15] | SMILES | inhibition at 5 min, 10 µM [5]
8.3 | 10 µL/min/1e6 cells | 2 µg/mL (≈ 3.61 µM) | 1.3 | 4.3 | 73 nM | 1.8 ×10⁻⁶ cm/s |  |  |  |  |  |  |  | Cn1cc(-c2ccc(CNc3cc(-c4cnc5cc(OCCCN6CCC(C)(F)CC6)ccn45)ncn3)cc2)cn1 | -4%
6.9 | 16 µL/min/1e6 cells | 16 µg/mL (≈ 29.2 µM) | 4.7 | 4.4 | 93 nM | 3.1 ×10⁻⁶ cm/s |  |  |  |  |  |  |  | Cn1cc(-c2ccc(CNc3cc(-c4cnc5cc(OCCN6CCC(C)(C#N)CC6)ccn45)ncn3)cc2)cn1 | -15%
 | 18 µL/min/1e6 cells | 2 µg/mL (≈ 4.39 µM) | 0.9 | 3.8 | 48 nM | 12 ×10⁻⁶ cm/s | < 2 µM | > 75 µL/min/mg | 10 µL/min/mg |  | Active | 890 µg/mL (≈ 1950 µM) | 13 µg/mL (≈ 28.5 µM) | COCCOc1ccn2c(-c3cc(NCc4ccc(-c5cnn(C)c5)cc4)ncn3)cnc2c1 | 1%
9.1 | 18 µL/min/1e6 cells |  | 5.4 | 2.9 | 70 nM | 12 ×10⁻⁶ cm/s |  |  |  |  |  |  |  | Cn1cc(-c2ccc(CNc3cc(-c4cnc5cc(OCCN6CCCC6)ccn45)ncn3)cc2)cn1 | -78%
 |  |  |  | 2.5 | 43 nM |  |  |  |  |  |  |  |  | CN(C)CCCOc1ccn2c(-c3cc(NCc4ccc(-c5cnn(C)c5)cc4)ncn3)cnc2c1 | -86%
7.3 | 10 µL/min/1e6 cells | 16 µg/mL (≈ 31.3 µM) | 15 | 1.5 | 56 nM | 9.5 ×10⁻⁶ cm/s |  |  |  |  |  |  |  | Cn1cc(-c2ccc(CNc3cc(-c4cnc5cc(OCCCNC6COC6)ccn45)ncn3)cc2)cn1 | -19%
 | 9 µL/min/1e6 cells | 13 µg/mL (≈ 29.4 µM) | 5 | 3 | 75 nM | 21 ×10⁻⁶ cm/s |  |  |  |  |  |  |  | Cn1cc(-c2ccc(CNc3cc(-c4cnc5cc(OCCO)ccn45)ncn3)cc2)cn1 | -23%
9.5 | 4 µL/min/1e6 cells | 97 µg/mL (≈ 202 µM) | 57 | 1.9 | 61 nM | 5.7 ×10⁻⁶ cm/s |  |  |  |  |  |  |  | CN1CC(COc2ccn3c(-c4cc(NCc5ccc(-c6cnn(C)c6)cc5)ncn4)cnc3c2)C1 | -59%

Continued, compound first:

SMILES | pKa [1] | hepatocyte CLint [2] | solubility [3] | efflux ratio at 2 h, 1 µM [4] | logD [6] | IC50 [7] | Papp at 2 h, 1 µM [8] | solubility kinetic at 2 h [9] | microsomal CLint [10] | microsomal CLint [11] | IC50 [12] | inhibition [13] | solubility [14] | solubility [15] | inhibition at 5 min, 10 µM [5]
Cc1nc(-c2ccc(CNc3cc(-c4cnc5cc(OCCN6CCC(=O)N(C)CC6)ccn45)ncn3)cc2)co1 | 6.3 | 6 µL/min/1e6 cells | 10 µg/mL (≈ 18.1 µM) | 7.5 | 3.2 | 54 nM | 7.6 ×10⁻⁶ cm/s |  |  |  |  |  |  |  | -7%
c1ccc(-c2ccc(CNc3ccnc(-c4cnc5ccccn45)n3)cc2)cc1 |  |  |  |  |  | 340 nM |  | < 3 µM | 10 µL/min/mg | 10 µL/min/mg | 15 nM |  |  |  | 
Cn1cc(-c2ccc(CNc3cc(-c4cnc5cc(OCCN6CCn7nncc7C6)ccn45)ncn3)cc2)cn1 | 5.8 | < 4 µL/min/1e6 cells | 10 µg/mL (≈ 18.3 µM) | 18 | 2.8 | 76 nM | 7.6 ×10⁻⁶ cm/s |  |  |  |  |  |  |  | -8%
CN1CCN(CCOc2ccn3c(-c4cncc(NCc5ccc(N6CCCC6)nc5)c4)cnc3c2)CC1 |  |  |  |  |  | 290 nM |  | 100 µM (≈ 51.3 µg/mL) | > 75 µL/min/mg | 10 µL/min/mg | 11 nM |  |  |  | 
c1ccn2c(-c3cncc(NCc4ccc(N5CCCC5)nc4)c3)cnc2c1 |  |  |  |  |  | 720 nM |  | 101 µM (≈ 37.4 µg/mL) | > 75 µL/min/mg | > 75 µL/min/mg | 12 nM |  |  |  | 90%
c1ccn2c(-c3cc(NCc4ccc(N5CCCC5)nc4)ncn3)cnc2c1 |  |  |  |  |  | 429 nM |  | < 3 µM | > 75 µL/min/mg | 10 µL/min/mg |  |  |  |  | 
COc1ccn2c(-c3cc(NCc4ccc(-c5ccccc5)cc4)ncn3)cnc2c1 |  |  |  |  |  | 160 nM |  | < 2 µM | < 10 µL/min/mg | 10 µL/min/mg | 4.6 nM |  |  |  | 
c1ccn2c(-c3nccc(NCC4CCN(C5CCCC5)CC4)n3)cnc2c1 |  |  |  |  |  |  |  |  | > 75 µL/min/mg | 10 µL/min/mg | > 10000 nM |  |  |  | 
CC(Nc1cncc(-c2cnc3ccccn23)c1)c1ccc(N2CCCC2)nc1 (centres undefined) |  |  |  |  |  | 2600 nM |  | 124 µM (≈ 47.7 µg/mL) | > 75 µL/min/mg | > 75 µL/min/mg | 83 nM |  |  |  | 
COc1ccn2c(-c3cc(NCc4ccc(-c5cnn(C)n5)cc4)ncn3)cnc2c1 |  | 8 µL/min/1e6 cells | 4 µg/mL (≈ 9.7 µM) | 0.7 | 4 | 78 nM | 9.5 ×10⁻⁶ cm/s |  |  |  |  |  |  |  | 
COc1ccn2c(-c3cc(NCc4ccc(-c5cnn(C)c5)cc4)ncn3)cnc2c1 |  |  |  |  |  | 55 nM |  | < 2 µM | < 10 µL/min/mg | < 10 µL/min/mg |  |  |  |  | 
COc1ccn2c(-c3cncc(NCc4ccc(N5CCCC5)nc4)c3)cnc2c1 |  |  |  |  |  | 300 nM |  | 81 µM (≈ 32.4 µg/mL) | > 75 µL/min/mg | > 75 µL/min/mg | 13 nM |  |  |  | 
CN(Cc1ccc(N2CCCC2)nc1)c1cncc(-c2cnc3ccccn23)c1 |  |  |  |  |  |  |  | 8 µM (≈ 3.08 µg/mL) |  |  | 240 nM |  |  |  | 
c1ccc2ncc(CNc3cncc(-c4cnc5ccccn45)c3)cc2c1 |  |  |  |  |  |  |  |  | 10 µL/min/mg | 10 µL/min/mg | > 10000 nM |  |  |  | 
c1ccn2c(-c3nccc(NCc4ccc(N5CCCC5)cc4)n3)cnc2c1 |  |  |  |  |  | 680 nM |  | 7 µM (≈ 2.59 µg/mL) |  |  | 5.6 nM |  |  |  | 
COCCOc1ccn2c(-c3cc(NCc4ccc(-c5cnn(C)n5)cc4)ncn3)cnc2c1 |  | 4 µL/min/1e6 cells |  | 0.8 | 3 | 46 nM | 6.4 ×10⁻⁶ cm/s |  |  |  |  |  |  |  | 
COCCOc1ccn2c(-c3cncc(NCc4ccc(N5CCCC5)nc4)c3)cnc2c1 |  |  |  |  |  | 110 nM |  | 9 µM (≈ 4 µg/mL) | > 75 µL/min/mg | > 75 µL/min/mg | 12 nM |  |  |  | 
